Laboratory results: patent US9556223B2, “Antimicrobial compounds” (priority 2008, dated 2017)
≈ marks a conversion by molar mass, not a printed value.

Experiments:
C. albicans = type: cell-based
[1] = test system: Staphylococcus aureus, strain ATCC 25923; type: cell-based
Protocol: (§1) MIC determinations on Staphylococcus aureus, strain ATCC 25923, Methicillin resistant Staphylococcus aureus (MRSA) strain ATCC 33591 and Methicillin resistant Staphylococcus epidermidis (MRSE) strain ATCC 27626 were performed by Toslab AS using standard methods. Amsterdam, D. (1996) Susceptibility testing of antimicrobials in liquid media, in Antibiotics in Laboratory Medicine. 4th ed (Lorian, V., Ed.) pp 75-78, Williams and Wilkins Co; Baltimore.

S. pyogenes = type: cell-based
E. coli = type: cell-based
P. aeruginosa = type: cell-based
[2] = test system: Methicillin resistant Staphylococcus aureus (MRSA) strain ATCC 33591; type: cell-based
Protocol: as §1

[3] = test system: Staphylococcus haemolyticus; assay: Susceptibility testing under planktonic growth condition (MIC); settings: E-test (rifampicin: broth microdilution)
[4] = test system: Staphylococcus epidermidis; assay: as above; settings: E-test (rifampicin: broth microdilution)
Staphylococcus aureus = assay: as above; settings: E-test (rifampicin: broth microdilution)
[5] = test system: S. haemolyticus TUH 51-07 biofilm; assay: Biofilm imaging, LIVE/DEAD staining, confocal laser scanning microscopy; type: cell-based
Protocol: One ml aliquots of MHIIB-diluted overnight culture was used to grow S. haemolyticus TUH 51-07 biofilm on plastic coverslides (Thermanox, cellculture treated on one side, NUNC) in 24-well dishes (Falcon 3047, Becton Dickinson, N.J., USA) for 24 h. The coverslides were then washed carefully with PBS, moved to a new plate and treated for 24 h with tetracycline 50 mg/L and 500 mg/L, vancomycin 50 mg/L and 500 mg/L, or Compound […] and 500 mg/L. The coverslides were washed again with […] and stained with a LIVE/DEAD kit (Invitrogen Molecular Probes, Eugene, Oreg., USA) following the manufacturer's instructions. This stain contains SYTO 9 (green fluorescent) and propidium iodide (PI; red fluorescent), both binding to DNA. When used alone, the SYTO 9 generally stains all bacteria in a population; both those with intact and those with damaged membranes. In contrast, PI penetrates only bacteria with damaged membranes, causing a reduction in the SYTO 9 stain green fluorescence when both dyes are present. We examined treated and untreated biofilms with a Leica TCS SP5 (Leica Microsystems Cms Gmbh, Mannheim, Germany) confocal laser scanning microscope (CLSM). Images were obtained using a 63×1.2 NA HCX PL APO water immersion lens. For detection of SYTO9 (green channel), we used the 488 nm line of the argon laser and a detection bandwidth of 495-515 nm. […]

[6] = strain SH TUH 51-07, blood culture
[7] = strain TUH 51-03, blood culture
[8] = strain SE RP62A ATCC 35984, blood culture
[9] = strain SE TUH 08-16, blood culture

Compound | MIC C. albicans (C. albicans) | MIC S. aureus [1] | MIC S. pyogenes (S. pyogenes) | MIC E. coli (E. coli) | MIC P. aeruginosa (P. aeruginosa) | MIC MRSA [2] | MIC antibiotics [3, 6] | MIC antibiotics [3, 7] | MIC antibiotics [4, 8] | MIC antibiotics [4, 9] | MIC antibiotics (Staphylococcus aureus; strain SA PIA 9, joint fluid) | MIC antibiotics (Staphylococcus aureus; strain SA PIA90, joint fluid) | LIVE/DEAD staining of biofilm cells (green live, red dead) ([5]; 24 h treatment at 500 mg/L) | LIVE/DEAD staining of biofilm cells (green live, red dead) ([5]; 24 h treatment at 50 mg/L)
CCCCCCCCCCCCCCCCNC(=O)[C@H](CCCNC(=N)N)NC(=O)[C@H](Cc1c(C(C)(C)C)[nH]c2c(C(C)(C)C)cc(C(C)(C)C)cc12)NC(=O)[C@@H](N)CCCNC(=N)N [Compound 5] | >100 µg/mL | 5 µg/mL (≈ 5.5 µM) | 6 µg/mL (≈ 6.61 µM) | >100 µg/mL | >100 µg/mL | – | – | – | – | – | – | – | – | –
CC(C)(C)c1cc(C(C)(C)C)c2[nH]c(C(C)(C)C)c(C[C@H](NC(=O)[C@@H](N)CCCNC(=N)N)C(=O)N[C@@H](CCCNC(=N)N)C(=O)NC3CCCC3)c2c1 [Compound 8] | – | – | – | – | – | <15 µg/mL | – | – | – | – | – | – | – | –
CC(=O)NC[C@H]1CN(c2ccc(N3CCOCC3)c(F)c2)C(=O)O1 [LZD, linezolid] | – | – | – | – | – | – | 0.5 µg/mL (≈ 1.48 µM) | 0.5 µg/mL (≈ 1.48 µM) | 1 µg/mL (≈ 2.96 µM) | 2 µg/mL (≈ 5.93 µM) | 2 µg/mL (≈ 5.93 µM) | 1 µg/mL (≈ 2.96 µM) | – | –
Cc1onc(-c2ccccc2)c1C(=O)N[C@@H]1C(=O)N2[C@@H]1SC(C)(C)[C@@H]2C(=O)O [OXA, oxacillin] | – | – | – | – | – | – | >256 µg/mL | >256 µg/mL | 8 µg/mL (≈ 19.9 µM) | 16 µg/mL (≈ 39.9 µM) | 1 µg/mL (≈ 2.49 µM) | 1 µg/mL (≈ 2.49 µM) | – | –
CO[C@H]1/C=C/O[C@@]2(C)Oc3c(C)c(O)c4c(O)c(c(/C=N/N5CCN(C)CC5)c(O)c4c3C2=O)NC(=O)/C(C)=C\C=C\[C@H](C)[C@H](O)[C@@H](C)[C@@H](O)[C@@H](C)[C@H](OC(C)=O)[C@@H]1C [RIF, rifampicin] | – | – | – | – | – | – | 0.016 µg/mL (≈ 0.0194 µM) | <0.016 µg/mL | <0.016 µg/mL | 0.016 µg/mL (≈ 0.0194 µM) | <0.016 µg/mL | 0.016 µg/mL (≈ 0.0194 µM) | – | –
CN(C)[C@@H]1C(=O)C(C(N)=O)=C(O)[C@@]2(O)C(=O)C3=C(O)c4c(O)cccc4[C@@](C)(O)[C@H]3C[C@@H]12 [TET, tetracycline] | – | – | – | – | – | – | 0.5 µg/mL (≈ 1.13 µM) | 1 µg/mL (≈ 2.25 µM) | 0.5 µg/mL (≈ 1.13 µM) | 2 µg/mL (≈ 4.5 µM) | 0.5 µg/mL (≈ 1.13 µM) | 0.5 µg/mL (≈ 1.13 µM) | a significant part of the cells are still green indicating live bacteria with intact cell membrane | –
CN[C@H](CC(C)C)C(=O)N[C@H]1C(=O)N[C@@H](CC(N)=O)C(=O)N[C@H]2C(=O)N[C@H]3C(=O)N[C@H](C(=O)N[C@H](C(=O)O)c4cc(O)cc(O)c4-c4cc3ccc4O)[C@H](O)c3ccc(c(Cl)c3)Oc3cc2cc(c3O[C@@H]2O[C@H](CO)[C@@H](O)[C@H](O)[C@H]2O[C@H]2C[C@](C)(N)[C@H](O)[C@H](C)O2)Oc2ccc(cc2Cl)[C@H]1O [VAN, vancomycin] | – | – | – | – | – | – | 2 µg/mL (≈ 1.38 µM) | 4 µg/mL (≈ 2.76 µM) | 4 µg/mL (≈ 2.76 µM) | 2 µg/mL (≈ 1.38 µM) | 2 µg/mL (≈ 1.38 µM) | 2 µg/mL (≈ 1.38 µM) | – | predominantly green cells (live organisms)
gentamicin | – | – | – | – | – | – | 64 µg/mL | 64 µg/mL | 8 µg/mL | 256 µg/mL | 1 µg/mL | 0.5 µg/mL | – | –
